From US12655139B2, “Isoxazolidines as RIPK1 inhibitors and use thereof” (SANOFI, priority 2020, dated 2026)
Where two headings read alike, the source gives them in different places.

How the values were obtained:
[1] = target: T1, hRIPK1 (aa 1-375) fusion protein (Homo sapiens, UniProt Q13546); test: ADP-Glo kinase assay, RIPK1 autophosphorylation; format: biochemical; details: Table 1
T1 construct: hRIPK1 (aa 1-375) fusion protein
T1 sequence (Q13546 1-375): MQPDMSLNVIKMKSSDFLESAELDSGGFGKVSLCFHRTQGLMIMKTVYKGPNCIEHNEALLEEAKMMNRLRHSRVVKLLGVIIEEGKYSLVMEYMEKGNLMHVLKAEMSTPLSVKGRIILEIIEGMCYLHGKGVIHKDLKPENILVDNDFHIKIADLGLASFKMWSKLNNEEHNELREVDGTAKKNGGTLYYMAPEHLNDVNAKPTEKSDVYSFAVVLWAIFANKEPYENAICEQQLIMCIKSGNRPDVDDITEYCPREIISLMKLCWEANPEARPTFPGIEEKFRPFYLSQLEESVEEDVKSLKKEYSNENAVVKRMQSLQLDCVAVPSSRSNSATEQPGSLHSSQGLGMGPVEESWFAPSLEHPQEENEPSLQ
Procedure: Evaluation of Receptor-Interacting Protein Kinase 1 Inhibition.
The catalytic activity of RIPK1 was measured by monitoring the conversion of Adenosine triphosphate (ATP) to Adenosine diphosphate (ADP) due to autophosphorylation using an ADP-Glo kinase kit (Promega, catalog no. V9104).
After another 240 minutes incubation at room temperature, 5 μl Promega ADP-Glo reagent I were added to quench the reaction and deplete unconsumed ATP. After an incubation period of 30 minutes, 10 μl Promega ADP-Glo detection reagent II were added resulting in conversion of ADP to ATP, which generates a light-reaction between luciferase and luciferin. Luminescence was quantified after 30 minutes with a Pherastar FS (BMG LABTECH, Ortenberg).
The adjustment was obtained by nonlinear regression using the Levenberg Marquardt algorithm.

[2] = test system: U937 cells; test: Cellular assay in U937 cells on cell death (necroptosis), TNFα/zVAD.fmk; format: cell-based; details: read-out: U937 IC50
Method in brief: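 U937 cells with 100 ng/ml TNFα plus 50 μM zVAD.fmk (pre-addition suspension levels) received 10 compound concentrations (10 μM–0.26 nM or 1 μM–0.07 nM) for 18–24 h at 37 °C. Live cells were read by MTS formazan absorbance at 490 nm after 4 h. % inhibition is relative to the maximal value without TNFα/zVAD.fmk.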

Compound	IC50 [1] [nM]	IC50 ([2]; Homo sapiens, U-937, Table 2) [nM]	IC50 ([2]; Table 2) [nM]
N#Cc1ccc([C@@H]2CCON2C(=O)C2CCN(c3nccc(C(N)=O)n3)CC2)nc1 [Ex. 108]	81.6	1010	
Cc1cc([C@@H]2CCON2C(=O)C2CCN(c3cc(C(N)=O)ncn3)CC2)co1 [Ex. 109]	19.3	5.31	
N#Cc1cncc([C@@H]2CCON2C(=O)C2CCN(c3ncc(F)c(C#N)n3)CC2)c1 [Ex. 111]	28.2	11.6	
Cc1nsc(N2CCC(C(=O)N3OCC[C@H]3c3cncc(C#N)c3)CC2)n1 [Ex. 113]	122	773	
COc1nc(N2CCC(C(=O)N3OCC[C@H]3c3cncc(C#N)c3)CC2)ncc1F [Ex. 114]	14	7.85	
N#Cc1cncc([C@@H]2CCON2C(=O)C2(F)CCN(c3nccc(C(N)=O)n3)CC2(F)F)c1 (some centres unmarked) [Ex. 115]	24.7	62.7	
COc1nc(N2CCC(C(=O)N3OCC[C@H]3c3cncc(C)n3)CC2)ncc1F [Ex. 116]	21.4	4.5	
N#Cc1cncc([C@@H]2CCON2C(=O)C2CCN(c3cnc(Cl)nc3C(=O)O)CC2)c1 [Ex. 121]	> 33000	4440	
N#Cc1cncc([C@@H]2CCON2C(=O)C2CCN(c3ncc(F)c(C(N)=O)n3)CC2F)c1 (some centres unmarked) [Ex. 154]	21.9		38.8
N#Cc1cncc([C@@H]2CCON2C(=O)C2CCN(c3ncc(F)c(C(N)=O)n3)CC2F)c1 (some centres unmarked) [Ex. 155]	16.5		4.06
N#Cc1cncc([C@@H]2CCON2C(=O)C2CCN(c3ccnc(C(N)=O)n3)CC2)c1 [Ex. 156]	297	927	
N#Cc1cncc([C@@H]2CCON2C(=O)C2CCN(c3ccnc(Br)n3)CC2)c1 [Ex. 157]	43.9	114	
N#Cc1cncc([C@@H]2CCON2C(=O)C2CCN(c3cc(Cl)ncn3)CC2)c1 [Ex. 159]	31.8	77.1	
O=C(O)c1nc(Cl)ncc1N1CCC(C(=O)N2OCC[C@H]2c2cnccn2)CC1 [Ex. 164]	17500	1970	
N#Cc1cncc([C@@H]2CCON2C(=O)C2CCN(c3cc(Br)ncn3)CC2)c1 [Ex. 165]	25	52.7	
N#Cc1cc([C@@H]2CCON2C(=O)C2CCN(c3ncc(F)c(C(N)=O)n3)CC2)cs1 [Ex. 166]	37.2	59.7	
N#Cc1cc([C@@H]2CCON2C(=O)C2CCN(c3ncc(F)c(C(N)=O)n3)CC2)co1 [Ex. 167]	31.1	48	
N#Cc1cc([C@@H]2CCON2C(=O)C2CCN(c3nccc(C(N)=O)n3)CC2)cs1 [Ex. 168]	45.4	79.2	
Cc1nc([C@@H]2CCON2C(=O)C2CCN(c3ncc(F)c(C(N)=O)n3)CC2)cs1 [Ex. 170]	21.7	16.5	
N#Cc1cc([C@@H]2CCON2C(=O)C2CCN(c3nccc(C(N)=O)n3)CC2)co1 [Ex. 171]	51.9	85.8	
NC(=O)c1nc(N2CCC(C(=O)N3OCC[C@H]3c3ccccn3)CC2)ncc1F [Ex. 175]	22.3	44.6	
N#Cc1cc([C@@H]2CCON2C(=O)C2CCN(c3ncc(F)c(C(N)=O)n3)CC2)cnn1 [Ex. 178]	112	1300	

Compound	IC50 [1] [nM]	IC50 ([2]; Homo sapiens, U-937, Table 2) [nM]	IC50 ([2]; Table 2) [nM]
Cc1nc(Cl)nc(N2CCC(C(=O)N3OCC[C@H]3c3cnccn3)CC2)n1 [Ex. 180]	32	1050	
Nc1nc(Cl)nc(N2CCC(C(=O)N3OCC[C@H]3c3cnccn3)CC2)n1 [Ex. 184]	3.26	1.79	
N#Cc1nc([C@@H]2CCON2C(=O)C2CCN(c3ncc(F)c(C(N)=O)n3)CC2)cs1 [Ex. 189]	30.3	102	
N#Cc1cncc([C@@H]2CCON2C(=O)C2CCN(c3nccc(C(N)=O)n3)CC2)c1 [compound 4]	23.8	22.1	
Cc1cncc([C@@H]2CCON2C(=O)C2CCN(c3nccc(C(N)=O)n3)CC2)n1 [compound 44]	9.31	8.47	
N#Cc1cncc([C@@H]2CCON2C(=O)C2CCN(c3ncc(F)c(C(N)=O)n3)CC2)c1 [compound 68]	14.7	3.25	
NC(=O)c1nc(N2CCC(C(=O)N3OCC[C@H]3c3cnccn3)CC2)ncc1F [compound 75]	8.46	2.73	
CC1(CCNC(=O)c2ccnc(N3CCC(C(=O)N4OCC[C@H]4c4cncc(C#N)c4)CC3)n2)CC1 [compound 77, 2-[4-[(3S)-3-(5-cyano-3-pyridyl)isoxazolidine-2-carbonyl]-1-piperidyl]-N-[2-(1-methylcyclo-propyl)ethyl]pyrimidine-4-carboxamide]	28.1	38.5	
CC(C)(C)OC(=O)N1CC(NC(=O)c2ccnc(N3CCC(C(=O)N4OCC[C@H]4c4cncc(C#N)c4)CC3)n2)C1 [compound 78, Tert-butyl 3-[[2-[4-[(3S)-3-(5-cyano-3-pyridyl)isoxazolidine-2-carbonyl]-1-piperidyl]pyrimidine-4-carbonyl]amino]azetidine-1-carboxylate]	52.9	316	
Cc1cnc([C@@H]2CCON2C(=O)C2CCN(c3ncc(F)c(C(N)=O)n3)CC2)cn1 [compound 90, 5-fluoro-2-[4-[(3S)-3-(5-methylpyrazin-2-yl)isoxazolidine-2-carbonyl]-1-piperidyl]pyrimidine-4-carboxamide]	12.6	38.1	
Cc1cnc([C@@H]2CCON2C(=O)C2CCN(c3cc(C#N)ncn3)CC2)cn1 [compound 91, 6-[4-[(3S)-3-(5-methylpyrazin-2-yl)isoxazolidine-2-carbonyl]-1-piperidyl]pyrimidine-4-carbonitrile]	14.9	183	
Cc1cc([C@@H]2CCON2C(=O)C2CCN(c3nccc(C(N)=O)n3)CC2)co1 [compound 110, (S)-2-(4-(3-(5-methylfuran-3-yl)isoxazolidine-2-carbonyl)piperidin-1-yl)pyrimidine-4-carboxamide]	17.3	1.69	
N#Cc1cncc([C@@H]2CCON2C(=O)C2CCN(c3ncc(F)c(C(N)=O)n3)CC2)n1 [compound 119]	21.1	5.55	
N#Cc1nc(N2CCC(C(=O)N3OCC[C@H]3c3cnccn3)CC2)ncc1F [compound 120, 5-fluoro-2-[4-[(3S)-3-pyrazin-2-ylisoxazolidine-2-carbonyl]-1-piperidyl]pyrimidine-4-carbonitrile]	18.8	1.69	
NC(=O)c1ccnc(N2CCC(F)(C(=O)N3OCC[C@H]3c3cnccn3)C(F)(F)C2)n1 (stereo partly drawn) [compound 122, 2-[3,3,4-trifluoro-4-[(3S)-3-pyrazin-2-ylisoxazolidine-2-carbonyl]-1-piperidyl]pyrimidine-4-carboxamide]	29.3	44.2	
N#Cc1ccnc(N2CCC(F)(C(=O)N3OCC[C@H]3c3cnccn3)C(F)(F)C2)n1 (stereo partly drawn) [compound 124, 2-[3,3,4-trifluoro-4-[(3S)-3-pyrazin-2-ylisoxazolidine-2-carbonyl]-1-piperidyl]pyrimidine-4-carbonitrile]	39.2	31.3	
NC(=O)c1nc(N2CCC(F)(C(=O)N3OCC[C@H]3c3cncc(F)c3)CC2)ncc1F [compound 126, (S)-5-fluoro-2-(4-fluoro-4-(3-(5-fluoropyridin-3-yl)isoxazolidine-2-carbonyl)piperidin-1-yl)pyrimidine-4-carboxamide]	25	39.6	
Cc1ccc([C@@H]2CCON2C(=O)C2CCN(c3nccc(C#N)n3)CC2)cn1 [compound 127, (S)-2-(4-(3-(6-methylpyridin-3-yl)isoxazolidine-2-carbonyl)piperidin-1-yl)pyrimidine-4-carbonitrile]	24.1	53.3	
N#Cc1cncc([C@@H]2CCON2C(=O)C2CCN(c3nc(Cl)ncc3F)CC2)c1 [compound 130, 5-[(3S)-2-[1-(2-chloro-5-fluoro-pyrimidin-4-yl)piperidine-4-carbonyl]isoxazolidin-3-yl]pyridine-3-carbonitrile]	22.3	22.2	
Cc1cncc([C@@H]2CCON2C(=O)C2CCN(c3nccc(C#N)n3)CC2)c1 [compound 131, (S)-2-(4-(3-(5-methylpyridin-3-yl)isoxazolidine-2-carbonyl)piperidin-1-yl)pyrimidine-4-carbonitrile]	23.9	34	
Cc1cncc([C@@H]2CCON2C(=O)C2CCN(c3cc(C#N)ncn3)CC2)c1 [compound 133, (S)-6-(4-(3-(5-methylpyridin-3-yl)isoxazolidine-2-carbonyl)piperidin-1-yl)pyrimidine-4-carbonitrile]	19.8	49.4	
